# Assay results published in patent publication US20020192159A1, “Single-patient drug trials used with accumulated database: flowchart” (priority 2001, published 2002).
# Counter-ions that a name gives are not always drawn.
# Key:
# [1] = tested on: patient with perennial allergic rhinitis; conditions: for incidence of sedation: day 4 of treatment
# [2] = tested on: individual patient; experiment: SPAS abuse potential test (liking score vs placebo or comparator); conditions: for liking score difference vs placebo: person
# Procedure: Single-patient drug kits can be designed to test for “liking scores,” “abuse potential scores,” and patient's desire to re-use the test article compared to placebo and positive controls.
# In this example, the abuse potential of the narcotic analgesic codeine is tested. A single-patient trial is conducted in a patient for whom treatment with codeine is deemed appropriate. The patient receives a SPAS test kit containing codeine, an alternative drug, e.g., ibuprofen and a questionnaire designed to elicit the liking score, desirability to re-use test article and abuse potential of the patient to codeine.
# In another example, in follow-up to the test above, the clinician compares diazepam to secobarbital in the same patient.
# [3] = tested on: previously tested similar patients; experiment: follow-up of previously tested similar patients in the database (addiction / smoking)
# [4] = tested on: hypertensive person; experiment: double-blind single-patient trial of verapamil as therapeutic alternative to propranolol; type: in vivo, human; conditions: for mean systolic blood pressure increases: end of six week trial, verapamil SR 240 mg vs propranolol SR 180 mg once daily, statistically insignificant; for mean systolic blood pressure increases / mean diastolic pressure: little difference between drugs; for mean diastolic pressure: throughout six week trial
# Procedure: In this example, the validity of using a sustained release formulation of verapamil 240 mg once daily as a therapeutic alternative to sustained release propranolol 180 mg once daily in a hypertensive person is shown. The trial during which the two medications are randomly administered in a double-blind manner is six weeks. The questionnaire used is set up in a manner similar to that described in above examples except that the questions elicit information related to the disease of hypertension. Blood pressure and adverse event reports are taken daily by the patient. […] Sleepiness is reported at equal rates for both drugs. All values are statistically insignificant and the therapeutic alternative selection is objectively validated.
# [5] = tested on: hyperactive child (Minimum Brain Dysfunction or Attention Deficit Disorder); experiment: SPAS single-patient drug trial of methylphenidate vs placebo
# Procedure: The usefulness of methylphenidate (Ritalin) treatment in a hyperactive child (Minimum Brain Dysfunction or Attention Deficit Disorder) is evaluated.
# Technology: Consists of instructions, “calendar” packaging for drug and a substantially identical looking placebo to assure appropriate dosing and monitoring of compliance, questionnaires and assessment forms and instructions. […] Results are mailed to the physician and, in this case, parent for use in evaluating the usefulness of the therapy. The physician and parent are contacted, e.g., every three months to provide data on therapies utilized, and perceived outcome, until the condition is resolved.
# The questionnaire portion of the kit includes an initial consent form for the parent or guardian to complete. The questionnaire also provides background information on the study and possible side effects associated with the medication. Also included therein is a form for providing relevant patient and family histories. More importantly, the questionnaire, in this case includes a portion for the weekly input by parents/guardians and school observers for answers to questions relating to the drug evaluation. Physician questionnaires are similarly arranged.
# The trial calls for 40 mg to be given daily as 10 mg four times daily compared to identical appearing placebo which is also given four times daily. After completing the trial and questionnaire, the data is processed to statistically determine the results.
# [6] = tested on: patients with the same disorder (hyperactive child); experiment: pooled SPAS data and follow-up of patients continued on methylphenidate 40 mg daily; type: in vivo, human
# Procedure: All results obtained from the data are compared against the results provided by data amassed from a pool of about 200 patients with the same disorder. If, of these 200 patients, 55 experience encouraging results (along with the current patient) they are continued on 40 mg daily treatment. If, of these 55 patients, 5 are lost to follow-up, with 50 remaining for prospective evaluation, the physician continues the patient on 40 mg methylphenidate daily based solely on the isolated SPAS single-patient drug trial results. The physician then reviews the pooled data on the 50 patients. This will be done to understand under what circumstances this individual patient is likely to continue to show benefit from methylphenidate 40 mg treatment, and what conditions lead to treatment failure.
# If for example, the pool of 50 patients who continue treatment have the following scores following the original SPAS testing:
# All 50 patients are followed up by telephone interview monthly for nine months or more, and outcomes are prospectively documented.
# The continuing validation process using pooled data, which is a subject of this invention, provides additional data essential to formulating a rational therapeutic decision.
# [7] = patients with statistically altered sleep patterns, within two months
# [8] = pool of 50 patients who continue treatment
smiles,measurement,setting,value
"CCOC(=O)N1CCC(=C2c3ccc(Cl)cc3CCc3cccnc32)CC1 [CL, loratidine]",incidence of sedation,[1]; person,2 on a 3 point scale
COc1ccc2c3c1O[C@H]1[C@@H](O)C=C[C@H]4[C@@H](C2)N(C)CC[C@@]341 [codeine],liking score,[2]; patient on codeine,3 out of 5
same,liking score difference vs placebo,[2]; statistically significant (Bayesian feedback),2 units
same,patients who became addicted,[3]; Caucasian female patients 30 to 40 years with similar 0 unit difference,10 out of 1250
same,patients who became addicted,"[3]; black male patients 40 to 50 years old with similar 2-unit difference, treated with codeine",25 out of 600
same,patients who became addicted,"[3]; similar patients with 2 unit differences, within three months",Twenty
same,patients who became addicted,[3]; similar patients with 3 unit differences,50 out of 110
CC(C)NCC(O)COc1cccc2ccccc12 (centres unmarked) [propranolol],mean systolic blood pressure increases,[4],3%
same,sleepiness reported,"[4]; human, in vivo",equal rates
same,mean diastolic pressure,[4],essentially stable
"CN(C)CCC(c1ccc(Cl)cc1)c1ccccn1 (centres unmarked) [CM, chlorpheniramine maleate]",patient's symptoms at reevaluation,[1]; 6 and 12 months post-initiation of CM treatment,well maintained
same,similar patients well maintained during a year long follow-up,[1]; database patients placed on CM after single-patient trials,37 of the 40
same,incidence of sedation,[1]; person,2 on a 3 point scale
same,"control of most bothersome symptom, sneezing","[1]; person, perennial allergic rhinitis",similarly and effectively controlled
CN1CCCC1c1cccnc1 (centres unmarked) [nicotine],liking score,"[2]; on average, patient receiving nicotine",4 out of 5
same,liking score difference vs placebo,[2]; statistically significant,3 units
same,patients who are smokers,[3]; female Caucasian patients 15 to 17 years old with similar 3-unit difference,820 out of 975
C=CCC1(C(C)CCC)C(=O)NC(=O)NC1=O (centres unmarked) [secobarbital],"difference in liking scores, diazepam vs secobarbital","[2]; same person, statistically significant difference",greater addiction potential
same,level of addiction on follow-up of similar patients,[3],high level of addiction
COC(=O)C(c1ccccc1)C1CCCCN1 (centres unmarked) [methylphenidate],patient's attention span,"[5]; 40 mg daily as 10 mg four times daily vs placebo, methylphenidate periods",improved substantially
same,sleep patterns,"[5]; 40 mg daily, methylphenidate periods",statistically altered
same,teacher comments,[5]; methylphenidate dosing periods,corroborate improved attention span
same,"follow-up outcome, patients with no statistically altered sleep disturbances","[6]; monthly telephone interview for nine months or more, 40 mg daily",well maintained
same,patients who experience encouraging results,[6]; of a pool of about 200 patients with the same disorder,55
same,patients experiencing grand mal seizures,[6]; [7],two
same,patients showing severe episodes of bizarre behaviors,[6]; [7],90%
same,Sleep Patterns: have been statistically altered,[6]; [8],50% have been statistically altered
same,Sleep Patterns: have not been statistically altered,[6]; [8],50% have not been statistically altered
same,Teacher Comments: corroborate improved attention span,[6]; [8],80% corroborate improved attention span
same,Teacher Comments: do not corroborate improved attention span,[6]; [8],20% do not corroborate improved attention span
same,Attention Span: have substantial improvement,"[6]; pool of 50 patients who continue treatment, scores following original SPAS testing",100% have substantial improvement
same,"follow-up outcome, patients with statistically altered sleep patterns","[6]; within two months, 40 mg daily",loss of symptom control
COc1ccc(CCN(C)CCCC(C#N)(c2ccc(OC)c(OC)c2)C(C)C)cc1OC (centres unmarked) [verapamil],mean systolic blood pressure increases,[4],3%
same,sleepiness reported,"[4]; six week trial, both drugs",equal rates
same,mean diastolic pressure,[4],essentially stable
CN1C(=O)CN=C(c2ccccc2)c2cc(Cl)ccc21 [diazepam],liking score,[2]; patient on diazepam,4 out of 5
same,liking score difference vs placebo,[2]; not statistically significant,0 units
same,level of addiction on follow-up of similar patients,[3],comparatively low level of addiction
